# Data published in patent US7169783B2, “(+)-Trans-4-(1-aminoethyl)-1-(4-pyridycarbamoyl)-cyclohexane and method for promoting neural growth in the central nervous system and in a patient at a site of neuronal lesion” (Universite de Montreal, priority 1998, dated 2007).
# Legend:
# [1] = test system: corticospinal tract (CST) fibers; parameters: species or system Balb-c female mice; conditions: mouse, in vivo
# [2] = test system: hindlimb motor function; test: Behavioral recovery after SCI, modified BBB locomotor rating scale; format: in vivo, mice
# Description: Since a toe clearance phase cannot be evaluated in recuperating mice, we modified the rating to a 17 point scale. Behavioral recovery was assessed for one month after SCI in an open field environment by the BBB method (Basso et al., 1995). […] Thus, scale points 16, 17 and 18 were removed from the scale. Mice raise their tail early in their recovery, and score 19 for tail up position was removed, leaving a 17 point total score. The mouse modified BBB score was as follows: [0] no observable hindlimb (HL) movement; […] […] In the late phase of recovery, the BBB score was determined from sequences of 4 steps or more from digitized videos projected on a computer screen at ¼ speed.
# [3] = test system: primary retinal neurons; test: Neurite growth of primary retinal neurons on complex inhibitory substrates (CSPG, myelin); format: cell-based, rats; conditions: plated on myelin or CSPG; 48 hours; FIG. 8
smiles,measurement,setting,value
"C[C@@H](N)[C@H]1CC[C@H](C(=O)Nc2ccncc2)CC1 [Y27632, (+)-Trans-4-(1-aminoethyl)-1-(4-pyridycarbamoyl)-cyclohexane]",distance of the longest axon from the lesion site,[1],up to 3 mm
same,sprouting of transected CST axons,[1],regenerative sprouting into the dorsal white matter and toward the lesion site
same,locomotor recovery over 1 month,[2]; 1 month period of observation,exhibited hindlimb-forelimb coordination
same,locomotor recovery at 24 hours after surgery,"[2]; 24 hours, control mice paraplegic, FIG. 10",already walking with weight support
same,length of neurites compared to untreated cells,[3],significantly increased the length of neurites
